What was measured:
Assay type in all cases: biochemical
MelBEc [1] = target: T1, MelBEc (Escherichia coli, UniProt P02921); assay: Trp to dansyl FRET, reversed by melibiose; conditions: solubilised in NDT-C11; fluorescent ligand displaced by melibiose
[2] = target: MelBSt (melibiose permease of Salmonella typhimurium) (Salmonella enterica, UniProt P30878); assay: melibiose reversal of Trp to D2G FRET; conditions: solubilised in DDM or NDT-C11; displaces D2G
MelBEc [3] = target: T1, MelBEc; assay: melibiose reversal of Trp to D2G FRET; conditions: solubilised in NDT-C11; displaces D2G

T1 sequence (P02921 2-473): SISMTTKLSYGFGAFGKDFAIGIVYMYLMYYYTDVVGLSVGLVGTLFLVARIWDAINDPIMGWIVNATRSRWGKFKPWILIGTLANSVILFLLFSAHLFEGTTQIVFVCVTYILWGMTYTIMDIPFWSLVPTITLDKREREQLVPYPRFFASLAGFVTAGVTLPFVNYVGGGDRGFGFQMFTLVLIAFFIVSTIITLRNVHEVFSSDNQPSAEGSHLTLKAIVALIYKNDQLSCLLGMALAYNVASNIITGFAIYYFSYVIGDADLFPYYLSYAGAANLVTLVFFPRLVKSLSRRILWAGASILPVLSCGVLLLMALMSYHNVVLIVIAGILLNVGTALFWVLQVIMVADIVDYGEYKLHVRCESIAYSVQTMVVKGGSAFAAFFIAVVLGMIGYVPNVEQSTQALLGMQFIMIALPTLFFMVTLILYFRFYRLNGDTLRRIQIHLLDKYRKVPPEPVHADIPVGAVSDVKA
Chain of MelBSt (melibiose permease of Salmonella typhimurium) (P30878 whole entry): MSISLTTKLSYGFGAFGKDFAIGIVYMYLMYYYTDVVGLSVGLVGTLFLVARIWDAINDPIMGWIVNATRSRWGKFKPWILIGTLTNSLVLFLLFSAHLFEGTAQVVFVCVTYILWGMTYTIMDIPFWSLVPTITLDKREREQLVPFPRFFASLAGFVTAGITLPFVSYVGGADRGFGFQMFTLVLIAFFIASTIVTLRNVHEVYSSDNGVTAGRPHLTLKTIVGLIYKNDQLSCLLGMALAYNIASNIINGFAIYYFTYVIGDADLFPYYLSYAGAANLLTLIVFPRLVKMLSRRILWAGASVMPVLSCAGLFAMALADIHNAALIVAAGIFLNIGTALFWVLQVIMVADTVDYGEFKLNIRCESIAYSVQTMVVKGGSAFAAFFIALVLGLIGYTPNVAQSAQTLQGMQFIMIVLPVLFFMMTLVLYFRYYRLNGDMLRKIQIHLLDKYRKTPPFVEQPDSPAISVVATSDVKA

Structure (SMILES)	Trp to dansyl FRET, reversed by melibiose (MelBEc [1])	melibiose reversal of Trp to D2G FRET [2]	melibiose reversal of Trp to D2G FRET (MelBEc [3])
CN(C)c1cccc2c(S(=O)(=O)NCCS[C@@H]3O[C@H](CO)[C@H](O)[C@H](O)[C@H]3O)cccc12 [2′-(N-dansyl)aminoalkyl-1-thio-β-D-galactopyranoside]	FRET response of the D^2G bound MelB to melibiose or water addition		
OC[C@H]1O[C@H](OC[C@H]2OC(O)[C@H](O)[C@@H](O)[C@@H]2O)[C@H](O)[C@@H](O)[C@H]1O (stereo partly drawn) [melibiose]		MelBSt solubilized in DDM or NDT-C11 was subjected to melibiose reversal of Trp	NDT-C11 is capable of maintaining the melibiose binding activity of both MelBSt and MelBEc

— PMC4836865 (Chemical Science, 2015)
